Test results from patent publication US20240165276A1, “SELECTIVE LIGANDS FOR TAU AGGREGATES” (KARIN & STEN MORTSTEDT CBD SOLUTIONS AB, priority 2019, published 2024).
Where two headings read alike, the source gives them in different places.

Key:
[1] = biological target: recombinant 0N4R Tau fibrils (Homo sapiens (Human), UniProt P10636); assay: ^3H-THK5117 competition binding to tau fibrils in vitro; settings: for IC50: competition with 3 nM [^3H]-THK5117, 0N4R tau fibrils, 1 h, 22° C., average if run more than once
Protocol: (§1) ^3H-THK5117 Competition Binding to Tau Fibrils In Vitro
(§2) Preparation of recombinant 0N4R Tau fibrils was performed as previously described in Morozova, O. A., Biochemistry (2013), Vol., 52(40), pages 6960-6967. Competition binding experiments to 0N4R Tau fibrils were performed by incubating increasing concentrations [10^−10-10^−6 M] of the Example compounds of the invention, or the known tau specific ligand PBB3 (PBB3 was synthesized as previously described in M. Maruyama, et al, Neuron 2013, 79, 1094-1108) or MK6240 (Novandi Chemistry AB), in the presence of 3 nM of the known tau ligand [^3H]-THK5117 (Novandi Chemistry) and 0.2 mM 0N4R tau fibrils in binding buffer (50 mM Tris-HCl, pH 7.4, 0.1% BSA) for 1 h in the dark, and at 22° C. The incubation was terminated by filtration through a Whatman GF/B glass filter (Whatman International, Kent, UK) using a Brandel cell harvester. The filter was then washed rapidly four times with 3 mL of ice-cold wash buffer (5 mM Tris-HCl, 0.25 mM NaCl, 5% EtOH), and equilibrated for 1 h in scintillation vials containing 5 mL of Ultima Gold scintillation fluid before being analysed using a Liquid Scintillation Analyzer.
(§3) The results are shown in Table 2 in the column labeled “Tau IC50”.
(§4) Relative Selectivity for Tau vs. Aβ
(§5) Relative selectivity for tau compared to Aβ for the exemplified compounds was calculated using the results for the [^3H]-THK5117 tau and [^3H]-AZD2184 Aβ assays described above. The calculated results are shown in Table 2 in the column labeled “Selectivity for tau relative to Aβ”.

[2] = system: recombinant 0N4R Tau fibrils; assay: as above; settings: calculated from [^3H]-THK5117 tau and [^3H]-AZD2184 Aβ assay results
Protocol: as §1, §2, §3, §4, §5

Aβ(1-42) amyloid fibrils = Aβ(1-42) amyloid fibrils (Homo sapiens, UniProt P05067); assay: ^3H-AZD2184 competition binding to Aβ(1-42) fibrils in vitro; settings: competition with [^3H]-AZD2184, Aβ(1-42) amyloid fibrils; average if run more than once
Protocol: ^3H-AZD2184 Competition Binding to Aβ(1-42) Fibrils In Vitro
Competition binding experiments to Aβ(1-42) amyloid fibrils were performed as previously described in Jureus, A., et al, Journal of Neurochemistry (2010), Vol. 114, pages 784-794 for the Example compounds of the invention indicated in Table 2, or the known tau specific ligand PBB3 (PBB3 was synthesized as previously described in M. Maruyama, et al, Neuron 2013, 79, 1094-1108).
The results are shown in Table 2 in the column labeled “Aβ IC50”.

[3] = cited from earlier work

Sequence of Aβ(1-42) amyloid fibrils (P05067 672-713 limits assumed): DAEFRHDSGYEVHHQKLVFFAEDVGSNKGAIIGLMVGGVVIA
Sequence of recombinant 0N4R Tau fibrils (Homo sapiens (Human), UniProt P10636) (P10636 other isoform, or with tags, fused parts or gaps): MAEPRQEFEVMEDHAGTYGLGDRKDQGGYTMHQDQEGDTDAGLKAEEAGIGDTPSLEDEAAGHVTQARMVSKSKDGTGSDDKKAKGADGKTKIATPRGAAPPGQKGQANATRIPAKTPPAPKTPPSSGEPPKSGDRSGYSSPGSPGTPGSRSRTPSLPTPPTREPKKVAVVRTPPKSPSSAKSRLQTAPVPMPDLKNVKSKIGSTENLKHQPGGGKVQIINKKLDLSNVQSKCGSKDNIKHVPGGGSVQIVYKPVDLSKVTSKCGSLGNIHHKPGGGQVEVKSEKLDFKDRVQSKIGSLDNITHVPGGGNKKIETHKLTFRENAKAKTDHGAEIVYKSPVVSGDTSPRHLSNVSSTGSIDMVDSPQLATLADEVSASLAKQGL

Row | Compound | IC50 [1] [nM] | Selectivity for tau relative to Aβ [2] | IC50 (Aβ(1-42) amyloid fibrils) [nM] | binding in the recombinant 4R tau fibrils assay (in words) ([1]; recombinant 4R tau fibrils, [^3H]-THK5117 competition) | radiochemical purity after exposure to fluorescent light ([3]; 1 min after exposure to fluorescent light) [%] | radiochemical purity after exposure to fluorescent light ([3]; from 10 to 60 min after exposure to fluorescent light)
1 | O[C@@H]1CCCN(c2ccc(-c3cc4cc(OCCOCCOCCF)ccc4[nH]3)cn2)C1 [Compound 29, (3R)-1-[5-(5-{2-[2-(2-Fluoroethoxy)ethoxy]ethoxy}-1H-indol-2-yl)pyridin-2-yl]piperidin-3-ol] | 14 | 5.7 | 80 | – | – | –
2 | O[C@@H]1CCCN(c2ncc(-c3cc4cc(OCCOCCOCCF)ccc4[nH]3)cn2)C1 [Compound 32, (3R)-1-[5-(5-{2-[2-(2-Fluoroethoxy)ethoxy]ethoxy}-1H-indol-2-yl)pyrimidin-2-yl]piperidin-3-ol] | 89 | 0.3 | 25 | – | – | –
3 | OC[C@@H]1CCN(c2ccc(-c3cc4cc(O)ccc4[nH]3)c(F)n2)C[C@H]1O [Compound 18, 2-{2-Fluoro-6-[(3S,4S)-3-hydroxy-4-(hydroxymethyl)piperidin-1-yl]pyridin-3-yl}-1H-indol-5-ol] | 29 | – | – | – | – | –
4 | OCC1CN(c2ccc(-c3cc4cc(O)ccc4[nH]3)c(F)n2)C1 [Compound 4] | 38 | 1.2 | 47 | – | – | –
5 | O[C@@H]1CCCN(c2ncc(-c3cc4cc(OCCF)ccc4[nH]3)cn2)C1 [Compound 31, (3R)-1-{5-[5-(2-Fluoroethoxy)-1H-indol-2-yl]pyrimidin-2-yl}piperidin-3-ol] | 10 | 1.2 | 12 | – | – | –
6 | Oc1ccc2[nH]c(-c3ccc(N4CCC[C@@H](O)C4)nc3)cc2c1 [Compound 27, 2-{6-[(3R)-3-Hydroxypiperidin-1-yl]pyridin-3-yl}-1H-indol-5-ol] | 25 | 1.3 | 32 | – | – | –
7 | COc1ccc2nc(-c3ccc(N4CC[C@@H](O)[C@H](O)C4)nc3)sc2c1 [Compound 8, (3R,4R)-1-[5-(6-Methoxy-1,3-benzothiazol-2-yl)pyridin-2-yl]piperidine-3,4-diol] | 16 | – | – | – | – | –
8 | COc1ccc2nc(-c3ccc(N4C[C@H](O)C[C@@H](O)C4)nc3)sc2c1 [Compound 25, (3R,5R)-1-[5-(6-Methoxy-1,3-benzothiazol-2-yl)pyridin-2-yl]piperidine-3,5-diol] | 62 | – | – | – | – | –
9 | COc1ccc2nc(-c3ccc(N4CC[C@H](O)C4)nc3)sc2c1 [Compound 3, (3S)-1-[5-(6-Methoxy-1,3-benzothiazol-2-yl)pyridin-2-yl]pyrrolidin-3-ol] | 11 | 1 | 11 | – | – | –
10 | COc1ccc2nc(-c3ccc(N4CC[C@@H](O)[C@@H](O)C4)nc3)sc2c1 [Compound 23, (3S,4R)-1-[5-(6-Methoxy-1,3-benzothiazol-2-yl)pyridin-2-yl]piperidine-3,4-diol] | 6 | – | – | – | – | –
11 | OCC1CCN(c2ccc(-c3cc4ccc(O)cc4[nH]3)c(F)n2)CC1 [Compound 22, 2-{2-Fluoro-6-[4-(hydroxymethyl)piperidin-1-yl]pyridin-3-yl}-1H-indol-6-ol] | 3 | 1 | 3 | – | – | –
12 | OCC1(O)CCN(c2ccc(-c3cc4cc(O)ccc4[nH]3)c(F)n2)CC1 [Compound 21, 2-{2-Fluoro-6-[4-hydroxy-4-(hydroxymethyl)piperidin-1-yl]pyridin-3-yl}-1H-indol-5-ol] | 40 | 0.2 | 9 | – | – | –
13 | OCCC1CN(c2ccc(-c3cc4cc(O)ccc4[nH]3)c(F)n2)C1 [Compound 5] | 7 | 1.6 | 11 | – | – | –
14 | OC[C@@H]1CCN(c2ccc(-c3cc4cc(O)ccc4[nH]3)c(F)n2)C[C@@H]1O [Compound 26] | 48 | – | – | – | – | –
15 | COc1ccc2nc(-c3ccc(N4C[C@H](O)C[C@H](O)C4)nc3)sc2c1 [Compound 12, (3R,5S)-1-[5-(6-Methoxy-1,3-benzothiazol-2-yl)pyridin-2-yl]piperidine-3,5-diol] | 40 | – | – | – | – | –
16 | COc1ccc2nc(-c3ccc(N4CC[C@@H](CO)[C@H](O)C4)nc3)sc2c1 [Compound 11, (3S,4S)-4-(Hydroxymethyl)-1-[5-(6-methoxy-1,3-benzothiazol-2-yl)pyridin-2-yl]piperidin-3-ol] | 11 | – | – | – | – | –
17 | Oc1ccc2[nH]c(-c3ccc(N4CCC[C@H](O)C4)nc3F)cc2c1 [Compound 7, 2-{2-Fluoro-6-[(3S)-3-hydroxypiperidin-1-yl]pyridin-3-yl}-1H-indol-5-ol] | 9 | 8.9 | 80 | – | – | –
18 | Nc1c(F)ccc2cnc(-n3ccc4ccncc43)cc12 [MK-6420, reference compound] | > 1000 | – | – | inactive | – | –
19 | O[C@@H]1CCCN(c2ccc(-c3cc4cc(OCCF)ccc4[nH]3)cn2)C1 [Compound 28, (3R)-1-{5-[5-(2-Fluoroethoxy)-1H-indol-2-yl]pyridin-2-yl}piperidin-3-ol] | 4 | 2 | 8 | – | – | –
20 | COc1ccc2nc(-c3ccc(N4CCC(O)(CO)CC4)nc3)sc2c1 [Compound 14, 4-(Hydroxymethyl)-1-[5-(6-methoxy-1,3-benzothiazol-2-yl)pyridin-2-yl]piperidin-4-ol] | 9 | 7.2 | 65 | – | – | –
21 | CNc1ccc(/C=C/C=C/c2nc3ccc(O)cc3s2)cn1 [PBB3, reference compound] | 7 | 4 | 28 | – | – | –
22 | Oc1ccc2[nH]c(-c3cnc(N4CCC[C@@H](O)C4)nc3)cc2c1 [Compound 30, 2-{2-[(3R)-3-Hydroxypiperidin-1-yl]pyrimidin-5-yl}-1H-indol-5-ol] | 150 | 0.6 | 90 | – | – | –
23 | Oc1ccc2[nH]c(-c3ccc(N4CCC[C@@H](O)C4)nc3F)cc2c1 [Compound 6, 2-{2-Fluoro-6-[(3R)-3-hydroxypiperidin-1-yl]pyridin-3-yl}-1H-indol-5-ol] | 1 | 37 | 37 | – | – | –
24 | CNc1ccc(/C=C/C=C/c2nc3ccc(O)cc3s2)cn1 [^11C-PBB3] | – | – | – | – | 77 | approximately 50%
25 | COC(=O)C1CN(c2ccc(-c3cc4cc(O)ccc4[nH]3)c(F)n2)C1 [Compound 33, Methyl 1-[6-Fluoro-5-(5-hydroxy-1H-indol-2-yl)pyridin-2-yl]azetidine-3-carboxylate] | 6 | – | – | – | – | –
26 | COc1ccc2nc(-c3ccc(N4CCCC(O)C4)nc3)sc2c1 (stereo not shown) [Compound 1, 1-[5-(6-Methoxy-1,3-benzothiazol-2-yl)pyridin-2-yl]piperidin-3-ol] | 4 | 2 | 8 | – | – | –
27 | COc1ccc2nc(-c3ccc(N4CC[C@@H](O)C4)nc3)sc2c1 [Compound 2, (3R)-1-[5-(6-Methoxy-1,3-benzothiazol-2-yl)pyridin-2-yl]pyrrolidin-3-ol] | 18 | 1.2 | 22 | – | – | –
28 | COc1ccc2nc(-c3ccc(N4CC[C@@H](CO)[C@@H](O)C4)nc3)sc2c1 [Compound 24] | 9 | – | – | – | – | –
